# US20190231718A1, “TREATMENT OF BREAST CANCER” (Duke University, priority 2016, published 2019)
# Substitutions are numbered along the chain they refer to. Where two headings read alike, the source gives them in different places.
# Key:
# [1] = Reported Cmax in blood at approved doses; type: in vivo
# Source text: See Maximov et al., Current Clinical Pharmacology 8(2): 135-155 (2013) and McDonnell et al., Journal of Medicinal Chemistry 58(12): 4883-4887 (2015). The transcriptional IC90 values of ER modulators evaluated were compared to the Cmax of these compounds in blood at approved doses. See Highlights of Prescribing Information: Evista, 2007; Highlights of Prescribing Information: Faslodex, 2012; Nolvadex, 2006; and Summary of Product Characteristics: Conbriza 2009.
# [2] = in blood at approved doses: ICI 500 mg, 4OHT 20 mg, raloxifene 60 mg, bazedoxifene 20 mg; cited from earlier work
# [3] = molecular target: T1, ESR1 wild type receptor (ERα WT) (Homo sapiens, UniProt P03372); experiment: ERE-luciferase reporter gene assay, wild-type ERα, Caov2 cells; type: cell-based
# T1 construct: expressed in transfected cells; host or cells: Caov2 ovarian carcinoma cells; SKBR3 breast adenocarcinoma cells
# T1 sequence (P03372 1-595): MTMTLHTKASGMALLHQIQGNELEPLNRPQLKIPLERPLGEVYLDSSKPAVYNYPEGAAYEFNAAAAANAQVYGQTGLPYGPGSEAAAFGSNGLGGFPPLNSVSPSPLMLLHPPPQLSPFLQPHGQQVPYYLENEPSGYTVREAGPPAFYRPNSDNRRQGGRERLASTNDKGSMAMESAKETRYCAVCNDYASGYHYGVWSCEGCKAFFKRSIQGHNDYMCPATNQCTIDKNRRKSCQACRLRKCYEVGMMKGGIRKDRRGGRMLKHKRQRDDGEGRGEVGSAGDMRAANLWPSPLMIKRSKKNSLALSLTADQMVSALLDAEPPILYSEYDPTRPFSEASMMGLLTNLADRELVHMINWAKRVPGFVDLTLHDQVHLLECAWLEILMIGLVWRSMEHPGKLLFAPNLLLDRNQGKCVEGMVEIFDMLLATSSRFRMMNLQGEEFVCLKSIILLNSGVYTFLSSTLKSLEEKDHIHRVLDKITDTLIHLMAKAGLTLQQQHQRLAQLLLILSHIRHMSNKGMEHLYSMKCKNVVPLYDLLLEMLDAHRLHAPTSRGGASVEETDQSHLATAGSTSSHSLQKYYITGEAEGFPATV
# Protocol: (§1) ExSite mutagenesis was performed using the corresponding primers as summarized in Table 1 below on a pENTR2B ERα WT construct using Pfu ultra taq polymerase. The primers were PNK phosphorylated. Following PCR amplification, the products were digested with DpnI at 37° C. for 1 hr, followed by overnight ligation at 16° C. Ligated products were transformed into DH5α bacterial cells and grown on kanamycin resistant plates. The pENTR clones were verified by sequencing and then swapped into the pcDNA-DEST vector using the Gateway system (Invitrogen) for expression analysis.
# (§2) Caov2 ovarian carcinoma cells were grown in RPMI-1640 media (Gibco) supplemented with 8% Fetal Bovine Serum (FBS), Sodium Pyruvate (NaPyr) and non-essential amino acids (NEAA) and passaged every 2-3 days. SKBR3 breast adenocarcinoma cells were grown in DMEM media (Gibco) supplemented with 8% Fetal Bovine Serum (FBS), Sodium Pyruvate (NaPyr) and non-essential amino acids (NEAA) and passaged every 2-3 days. […]
# (§3) Caov2 cells were co-transfected with the 7X-TK-ERE-TATA luciferase reporter gene (Nagel et al., Endocrinology 142(11): 4721-4728 (2001)) and expression constructs for either wild-type or mutant receptors using Fugene transfection reagent (Promega). […] Following 24 hours of treatment, cells were lysed and the luciferase and β-gal assays were performed as described previously (Norris et al., J Biol Chem 270(39): 22777-22782 (1995)) and the plates were read on the Fusion α-FP HT plate reader (PerkinElmer Life Sciences).
# (§4) See Jeselsohn et al., Nature Reviews Clinical Oncology 12(10): 573-583 (2015); Jeselsohn et al., Clinical Cancer Research 20(7): 1757-1767 (2014); Robinson et al., Nature Genetics 45(12): 1446-1451(2013); Thomas and Gustafsson, Trends in Endocrinology and Metabolism 26(9): 467-476 (2015); and Toy et al., Nature Genetics 45(12): 1439-1445 (2013). The activity of these mutants was evaluated in a reconstituted estrogen response element (ERE)-luciferase reporter assay in Caov2 ovarian carcinoma cells and SKBR3 breast adenocarcinoma cells. […]
# [4] = molecular target: T2, Y537N mutant receptor (ERα LBD mutant) (Homo sapiens, UniProt P03372, Y537N); experiment: ERE-luciferase reporter gene assay, ERα Y537N, Caov2 cells; type: cell-based
# T2 construct: expressed in transfected cells; host or cells: Caov2 ovarian carcinoma cells; SKBR3 breast adenocarcinoma cells
# T2 sequence (P03372 1-595 Y537N): T1 sequence (P03372 1-595) with Y537N
# Protocol: as §1, §2, §3, §4
# [5] = molecular target: T3, Y537C mutant receptor (ERα LBD mutant) (Homo sapiens, UniProt P03372, Y537C); experiment: ERE-luciferase reporter gene assay, ERα Y537C, Caov2 cells; type: cell-based
# T3 construct: expressed in transfected cells; host or cells: Caov2 ovarian carcinoma cells; SKBR3 breast adenocarcinoma cells
# T3 sequence (P03372 1-595 Y537C): T1 sequence (P03372 1-595) with Y537C
# Protocol: as §1, §2, §3, §4
# [6] = molecular target: T1, ESR1 wild type receptor (ERα WT); experiment: ERE-luciferase reporter gene assay, wild-type ERα, SKBR3 cells; type: cell-based
# Protocol: as §1, §2, §3, §4
# [7] = molecular target: T2, Y537N mutant receptor (ERα LBD mutant); experiment: ERE-luciferase reporter gene assay, ERα Y537N, SKBR3 cells; type: cell-based
# Protocol: as §1, §2, §3, §4
# [8] = molecular target: T3, Y537C mutant receptor (ERα LBD mutant); experiment: ERE-luciferase reporter gene assay, ERα Y537C, SKBR3 cells; type: cell-based
# Protocol: as §1, §2, §3, §4
# [9] = human, blood, reported Cmax converted to molar, same approved doses, read-out: Converted (M) Cmax
molecule,measurement,setting,value
"C[C@]12CC[C@@H]3c4ccc(O)cc4C[C@@H](CCCCCCCCC[S+]([O-])CCCC(F)(F)C(F)(F)F)[C@H]3[C@@H]1CC[C@@H]2O (some centres unmarked) [ICI, fulvestrant]",Cmax,"[1]; human, in vivo",4.6e-08 M
same,Reported Cmax,[2],28 ng/mL
4-hydroxytamoxifen [4OHT],Caov2 Ratio Cmax/IC90,[3],119.01
same,IC90,[3],0.924 nM
same,inhibition of receptor transcriptional activity (in words),[3],inhibits activity of the ESR1 wild type receptor
same,Caov2 Ratio Cmax/IC90,[4],11.6
same,IC90,[4],9.45 nM
same,inhibition of receptor transcriptional activity (in words),[4],inhibits the Y537N mutant receptor activity in a dose-response manner
same,Caov2 Ratio Cmax/IC90,[5],13.24
same,IC90,[5],8.31 nM
same,inhibition of receptor transcriptional activity (in words),[5],inhibits the Y537C mutant receptor activity in a dose-response manner
same,IC90,[6],3.2 nM
same,SKBR3 Ratio Cmax/IC90,[6],34.38
same,inhibition of receptor transcriptional activity (in words),[6],inhibits the ESR1 wild type receptor activity
same,IC90,[7],130 nM
same,SKBR3 Ratio Cmax/IC90,[7],0.85
same,inhibition of receptor transcriptional activity (in words),[7],inhibits the Y537N mutant receptor activity in a dose-response manner
same,IC90,[8],59 nM
same,SKBR3 Ratio Cmax/IC90,[8],1.86
same,inhibition of receptor transcriptional activity (in words),[8],inhibits the Y537C mutant receptor activity in a dose-response manner
same,Cmax,[1]; in vivo,1.1e-07 M
same,Reported Cmax,[2],40 ng/mL
"O=C(c1ccc(OCCN2CCCCC2)cc1)c1c(-c2ccc(O)cc2)sc2cc(O)ccc12 [Raloxifene, raloxifene]",Cmax,[1]; [9],2.87e-09 M
same,Reported Cmax,[2],1.36 ng/mL
"Cc1c(-c2ccc(O)cc2)n(Cc2ccc(OCCN3CCCCCC3)cc2)c2ccc(O)cc12 [Bazedoxifene, bazedoxifene]",Cmax,[1]; [9],7.29e-09 M
same,Reported Cmax,[2],6.2 ng/mL
